According to EPA's ToxValDB 9.5 (doi:10.2903/j.efsa.2018.5252):

How the values were obtained:
Apis mellifera = conditions: acute, mortality
Bibionidae = conditions: chronic/long-term
Canidae = conditions: subchronic; duration: 90 days; oral; M/F; Dog Other; body weight
Cyprinus carpio = conditions: acute; duration: 96 hours; mortality
Oryctolagus sp. = conditions: reproduction developmental; body weight
Pimephales promelas = conditions: chronic/long-term; duration: 110 days; reproduction
Tagia sp. = conditions: chronic/long-term; growth
Aphidius rhopalosiphi = assay: LR50; higher = less toxic; conditions: not reported; mortality

`CC[C@H]1CCC[C@H](O[C@H]2CC[C@H](N(C)C)[C@@H](C)O2)[C@@H](C)C(=O)C2=C[C@@H]3[C@@H](C=C(C)[C@@H]4C[C@@H](O[C@@H]5O[C@@H](C)[C@H](OC)[C@@H](OC)[C@H]5OC)C[C@@H]34)[C@@H]2CC(=O)O1.CC[C@H]1CCC[C@H](O[C@H]2CC[C@H](N(C)C)[C@@H](C)O2)[C@@H](C)C(=O)C2=C[C@@H]3[C@@H](C=C[C@@H]4C[C@@H](O[C@@H]5O[C@@H](C)[C@H](OC)[C@@H](OC)[C@H]5OC)C[C@@H]34)[C@@H]2CC(=O)O1` [Spinosad] was tested, and the LD50 (Anas platyrhynchos; acute, oral, unspecified, mortality) was > 2000 mg/kg-day, the NOAEL (Anas platyrhynchos; chronic/long-term) was 78.1 mg/kg-day and the LEL (Anas platyrhynchos; chronic/long-term, mortality) was 200 mg/kg-day. It also gave an LD50 (Apis mellifera; dermal) of 0.0036 µg/piece, an LD50 (Apis mellifera; oral, unspecified) of 0.057 µg/piece and an NOEC (Bibionidae; duration: 25 days) of 0.62 µg/L. The NOEC (Bibionidae; duration: 28 days) was 0.0585 mg/kg, the NOAEL (Canidae) was 4.89 mg/kg-day and the LD50 (Colinus virginianus; acute, oral, mortality) was > 2000 mg/kg-day. It also gave an NOAEL (Colinus virginianus; chronic) of 68.5 mg/kg-day, an LEL (Colinus virginianus; chronic, mortality) of 200 mg/kg-day and an LC50 (Cyprinus carpio) of 4 mg/L. For the same compound, the NOAEL (Oryctolagus sp.) was 10 mg/kg-day, the NOEC (Pimephales promelas) was 0.217 mg/L and the LD50 (Rattus norvegicus; acute, oral, mortality) was > 2000 mg/kg-day. The NOAEL (Rattus norvegicus; chronic, duration: 2 years, oral, diet, M, Fischer 344, organ weight) was 2.4 mg/kg-day, the NOAEL (Rattus norvegicus; reproduction developmental, M/F, reproduction) was 10 mg/kg-day and the NOEC (Tagia sp.) was 35.2 mg/kg. The LR50 (Aphidius rhopalosiphi) was 0.371 g/ha.
